In patent EP2641901A1, “Novel microbiocides” (Syngenta Participations AG, priority 2012, dated 2013):

Experiments:
[1] = tested on: Puccinia recondita f. sp. tritici; assay: Puccinia recondita f. sp. tritici / wheat / leaf disc preventative (Brown rust); type: in vivo; details: 200ppm, wheat leaf segments cv Kanzler, inoculated 1 day after application, percent disease control compared to untreated, 7 - 9 days after application
Procedure: Puccinia recondita f. sp. tritici l wheat / leaf disc preventative (Brown rust): Wheat leaf segments cultivated variety (cv) Kanzler were placed on agar in 24-well plates and sprayed with formulated test compound diluted in water at an application rate of 200ppm. The leaf disks were inoculated with a spore suspension of the fungus 1 day after application. The inoculated leaf segments were incubated at 19°C and 75% relative humidity under a light regime of 12/12 h (light/dark) in a climate cabinet and the activity of a compound was assessed as percent disease control compared to untreated when an appropriate level of disease damage appears in untreated check leaf segments (7 - 9 days after application). […] P.01, P.02

[2] = tested on: Puccinia recondita f. sp. tritici; assay: Puccinia recondita f. sp. tritici / wheat / leaf disc curative (Brown rust); type: in vivo; details: 200ppm, wheat leaf segments cv Kanzler, applied 1 day after inoculation, percent disease control compared to untreated, 6 - 8 days after application
Procedure: Puccinia recondita f. sp. tritici / wheat / leaf disc curative (Brown rust): Wheat leaf segments cv Kanzler were placed on agar in 24-well plates. The leaf segments were inoculated with a spore suspension of the fungus. The plates were stored in darkness at 19°C and 75% relative humidity. The formulated test compound diluted in water was applied at an application rate of 200ppm 1 day after inoculation. The leaf segments were incubated at 19°C and 75% relative humidity under a light regime of 12/12 h (light/dark) in a climate cabinet and the activity of a compound was assessed as percent disease control compared to untreated when an appropriate level of disease damage appears in untreated check leaf segments (6 - 8 days after application). […] P.01, P.02

Phaeosphaeria nodorum = Phaeosphaeria nodorum / wheat / leaf disc preventative (Glume blotch); type: in vivo; details: 200ppm, wheat leaf segments cv Kanzler, inoculated 2 days after application, percent disease control compared to untreated, 5 - 7 days after application
Procedure: Phaeosphaeria nodorum (Septorla nodorum) / wheat / leaf disc preventative (Glume blotch): Wheat leaf segments cv Kanzler were placed on agar in a 24-well plate and sprayed with formulated test compound diluted in water at an application rate of 200ppm. The leaf disks were inoculated with a spore suspension of the fungus 2 days after application. The inoculated test leaf disks were incubated at 20°C and 75% relative humidity under a light regime of 12/12 h (light/dark) in a climate cabinet and the activity of a compound was assessed as percent disease control compared to untreated when an appropriate level of disease damage appears in untreated check leaf disks (5 - 7 days after application). […] P.01, P.02

Pyrenophora teres = Pyrenophora teres / barley / leaf disc preventative (Net blotch); type: in vivo; details: 200ppm, barley leaf segments cv Hasso, inoculated two days after application, disease control compared to untreated, 5 - 7 days after application
Procedure: Pyrenophora teres / barley / leaf disc preventative (Net blotch): Barley leaf segments cv Hasso were placed on agar in a 24-well plate and sprayed with formulated test compound diluted in water at an application rate of 200ppm. The leaf segments were inoculated with a spore suspension of the fungus two days after application of the test solution. The inoculated leaf segments were incubated at 20°C and 65% relative humidity under a light regime of 12/12 h (light/dark) in a climate cabinet and the activity of a compound was assessed as disease control compared to untreated when an appropriate level of disease damage appears in untreated check leaf segments (5 - 7 days after application). […] P.01, P.02

Botryotinia fuckeliana = Botryotinia fuckeliana (Botrytis cinerea) / liquid culture (Gray mould); type: cell-based; details: 200ppm; liquid culture (Vogels broth), 24°C; inhibition of growth determined photometrically 3-4 days after application
Procedure: Botryotinia fuckeliana (Botrytis cinerea) / liquid culture (Gray mould): Conidia of the fungus from cryogenic storage were directly mixed into nutrient broth (Vogels broth). After placing a DMSO solution of test compound into a 96-well microtiter plate at an application rate of 200ppm, the nutrient broth containing the fungal spores was added. The test plates were incubated at 24°C and the inhibition of growth was determined photometrically 3-4 days after application. […] P.01, P.02

Glomerella lagenarium = Glomerella lagenarium (Colletotrichum lagenarium) / liquid culture (Anthracnose); type: cell-based; details: 200ppm; liquid culture (PDB potato dextrose broth), 24°C; inhibition of growth measured photometrically 3-4 days after application
Procedure: Glomerella lagenarium (Colletotrichum lagenarium) / liquid culture (Anthracnose) : Conidia of the fungus from cryogenic storage were directly mixed into nutrient broth (PDB potato dextrose broth). After placing a DMSO solution of test compound into a 96-well microtiter plate at an application rate of 200ppm, the nutrient broth containing the fungal spores was added. The test plates were incubated at 24°C and the inhibition of growth was measured photometrically 3-4 days after application. […] P.01, P.02

Mycosphaerella arachidis = Mycosphaerella arachidis (Cercospora arachidicola) / liquid culture (early leaf spot); type: cell-based; details: 200ppm; liquid culture (PDB potato dextrose broth), 24°C; inhibition of growth determined photometrically 4-5 days after application
Procedure: Mycosphaerella arachidis (Cercospora arachidicola) / liquid culture (early leaf spot): Conidia of the fungus from cryogenic storage were directly mixed into nutrient broth (PDB potato dextrose broth). After placing a DMSO solution of test compound into a 96-well microtiter plate at an application rate of 200ppm, the nutrient broth containing the fungal spores was added. The test plates were incubated at 24°C and the inhibition of growth was determined photometrically 4-5 days after application. […] P.01, P.02

[3] = tested on: Mycosphaerella graminicola; assay: Mycosphaerella graminicola (Septoria tritici) / liquid culture (Septoria blotch); type: cell-based; details: 200ppm; liquid culture (PDB potato dextrose broth), 24°C; inhibition of growth determined photometrically 4-5 days after application
Procedure: Mycosphaerella graminicola (Septoria tritici) / liquid culture (Septoria blotch): Conidia of the fungus from cryogenic storage were directly mixed into nutrient broth (PDB potato dextrose broth). After placing a DMSO solution of test compound into a 96-well microtiter plate at an application rate of 200ppm, the nutrient broth containing the fungal spores was added. The test plates were incubated at 24°C and the inhibition of growth was determined photometrically 4-5 days after application. […] P.01, P.02

Thanatephorus cucumeris = Thanatephorus cucumeris (Rhizoctonia solani) / liquid culture (foot rot, damping-off); type: cell-based; details: 200ppm; liquid culture (PDB potato dextrose broth), 24°C; inhibition of growth determined photometrically 3-4 days after application
Procedure: Thanatephorus cucumeris (Rhizoctonia solani) / liquid culture (foot rot, damping-off): Mycelia fragments of a newly grown liquid culture of the fungus were directly mixed into nutrient broth (PDB potato dextrose broth). After placing a DMSO solution of the test compounds into a 96-well microtiter plate at an application rate of 200ppm, the nutrient broth containing the fungal material was added. The test plates were incubated at 24°C and the inhibition of growth was determined photometrically 3-4 days after application. […] P.01, P.02

Monographella nivalis = Monographella nivalis (Microdochium nivale) / liquid culture (foot rot cereals); type: cell-based; details: 200ppm; liquid culture (PDB potato dextrose broth), 24°C; inhibition of growth determined photometrically 4-5 days after application
Procedure: Monographella nivalis (Microdochium nivale) / liquid culture (foot rot cereals): Conidia of the fungus from cryogenic storage were directly mixed into nutrient broth (PDB potato dextrose broth). After placing a DMSO solution of test compound into a 96-well microtiter plate at an application rate of 200ppm, the nutrient broth containing the fungal spores was added. The test plates were incubated at 24°C and the inhibition of growth was determined photometrically 4-5 days after application. […] P.01, P.02

[4] = tested on: Blumeria graminis f. sp. tritici; assay: Blumeria graminis f. sp. tritici / wheat / leaf disc preventative (Powdery mildew on wheat); type: in vivo; details: 200ppm, wheat leaf segments cv. Kanzler, inoculated 1 day after application, percent disease control compared to untreated, 6 - 8 days after application
Procedure: Blumeria graminis f. sp. tritici (Erysiphe graminis f. sp. tritici) / wheat / leaf disc preventative (Powdery mildew on wheat): Wheat leaf segments cv. Kanzler were placed on agar in a 24-well plate and sprayed with the formulated test compound diluted in water at an application rate of 200ppm. The leaf disks were inoculated by shaking powdery mildew infected plants above the test plates 1 day after application. The inoculated leaf disks were incubated at 20°C and 60% relative humidity under a light regime of 24 h darkness followed by 12h/12h (dark/light) in a climate chamber and the activity of a compound was assessed as percent disease control compared to untreated when an appropriate level of disease damage appears on untreated check leaf segments (6 - 8 days after application). […] P.01, P.02

Pythium ultimum = Pythium ultimum / liquid culture (seedling damping off); type: cell-based; details: 200ppm; liquid culture (potato dextrose broth), 24°C; inhibition of growth determined photometrically 2-3 days after application
Procedure: Pythium ultimum / liquid culture (seedling damping off) Mycelia fragments and oospores of a newly grown liquid culture of the fungus were directly mixed into nutrient broth (potato dextrose broth). After placing a DMSO solution of test compound into a 96-well format microtiter plate at an application rate of 200ppm, the nutrient broth containing the fungal mycelia/spore mixture was added. The test plates were incubated at 24°C and the inhibition of growth was determined photometrically 2-3 days after application. […] P.01, P.02

Magnaporthe grisea = type: in vivo; details: 200ppm; rice leaf segments cv. Ballila, preventative, inoculated 2 days after application; percent disease control compared to untreated, 5 - 7 days after application

CO/N=C1\CCCc2ccc(CCCO/N=C(\C)c3cccc(C)n3)nc21 [P.02]
at least 80%: control of Puccinia recondita f. sp. tritici [1] | control of Puccinia recondita f. sp. tritici [2] | control of Phaeosphaeria nodorum (Phaeosphaeria nodorum) | control of Pyrenophora teres (Pyrenophora teres) | control of Botryotinia fuckeliana (Botryotinia fuckeliana) | control of Glomerella lagenarium (Glomerella lagenarium) | control of Mycosphaerella arachidis (Mycosphaerella arachidis) | control of Mycosphaerella graminicola [3] | control of Thanatephorus cucumeris (Thanatephorus cucumeris) | control of Monographella nivalis (Monographella nivalis) | control of Blumeria graminis [4] | control of Pythium ultimum (Pythium ultimum) | control of Magnaporthe grisea (Magnaporthe grisea)
